Measured values taken from ChEMBL document CHEMBL2439988, “Inhibition of human carbonic anhydrase isoforms I-XIV with sulfonamides incorporating fluorine and 1,3,5-triazine moieties” (Bioorg Med Chem, 2013).

Legend:
Carbonic anhydrase 9 = Carbonic anhydrase 9 (Homo sapiens, UniProt Q16790); assay: Inhibition of human recombinant carbonic anhydrase9 transmembrane isoform expressed in Escherichia coli BL21 preincubated for 15 mins by stopped-flow CO2 hydration assay
Carbonic anhydrase 1 = Carbonic anhydrase 1 (Homo sapiens, UniProt P00915); assay: Inhibition of human recombinant carbonic anhydrase1 cytosolic isoform expressed in Escherichia coli BL21 preincubated for 15 mins by stopped-flow CO2 hydration assay
Carbonic anhydrase 1, sequence (P00915 whole entry, canonical isoform): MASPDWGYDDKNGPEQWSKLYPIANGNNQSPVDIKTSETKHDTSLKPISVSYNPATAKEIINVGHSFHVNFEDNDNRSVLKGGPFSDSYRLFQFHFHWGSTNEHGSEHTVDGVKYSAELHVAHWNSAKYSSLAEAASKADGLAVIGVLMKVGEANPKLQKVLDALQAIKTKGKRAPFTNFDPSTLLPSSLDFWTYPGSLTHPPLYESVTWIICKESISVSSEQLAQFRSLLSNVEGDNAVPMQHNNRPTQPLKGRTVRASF

Carbonic anhydrase 6 = Carbonic anhydrase 6 (Homo sapiens, UniProt P23280); assay: Inhibition of human recombinant carbonic anhydrase6 secreted isoform expressed in Escherichia coli BL21 preincubated for 15 mins by stopped-flow CO2 hydration assay
Carbonic anhydrase 6, sequence (P23280 whole entry, canonical isoform): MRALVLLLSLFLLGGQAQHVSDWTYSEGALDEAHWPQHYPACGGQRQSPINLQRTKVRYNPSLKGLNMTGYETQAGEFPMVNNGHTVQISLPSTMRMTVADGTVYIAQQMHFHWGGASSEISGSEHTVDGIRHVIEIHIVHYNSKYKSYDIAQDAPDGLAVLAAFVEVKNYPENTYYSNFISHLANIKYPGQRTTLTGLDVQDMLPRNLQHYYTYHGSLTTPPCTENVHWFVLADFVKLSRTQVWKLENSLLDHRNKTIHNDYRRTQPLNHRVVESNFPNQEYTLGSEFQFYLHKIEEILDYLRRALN

Carbonic anhydrase 12 = Carbonic anhydrase 12 (Homo sapiens, UniProt O43570); assay: Inhibition of human recombinant carbonic anhydrase12 transmembrane isoform expressed in Escherichia coli BL21 preincubated for 15 mins by stopped-flow CO2 hydration assay
Carbonic anhydrase 12, sequence (O43570 whole entry, canonical isoform): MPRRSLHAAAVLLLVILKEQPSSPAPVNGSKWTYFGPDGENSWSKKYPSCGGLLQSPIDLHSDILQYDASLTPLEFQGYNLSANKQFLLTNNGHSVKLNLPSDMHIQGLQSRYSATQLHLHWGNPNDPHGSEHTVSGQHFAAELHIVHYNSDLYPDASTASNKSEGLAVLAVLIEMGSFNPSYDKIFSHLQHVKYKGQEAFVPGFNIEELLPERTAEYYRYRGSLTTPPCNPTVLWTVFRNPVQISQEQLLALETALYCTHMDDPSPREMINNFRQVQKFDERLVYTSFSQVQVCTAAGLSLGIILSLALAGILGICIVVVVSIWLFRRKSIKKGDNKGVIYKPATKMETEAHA

Carbonic anhydrase 3 = Carbonic anhydrase 3 (Homo sapiens, UniProt P07451); assay: Inhibition of human recombinant carbonic anhydrase3 cytosolic isoform expressed in Escherichia coli BL21 preincubated for 15 mins by stopped-flow CO2 hydration assay
Carbonic anhydrase 3, sequence (P07451 whole entry, canonical isoform): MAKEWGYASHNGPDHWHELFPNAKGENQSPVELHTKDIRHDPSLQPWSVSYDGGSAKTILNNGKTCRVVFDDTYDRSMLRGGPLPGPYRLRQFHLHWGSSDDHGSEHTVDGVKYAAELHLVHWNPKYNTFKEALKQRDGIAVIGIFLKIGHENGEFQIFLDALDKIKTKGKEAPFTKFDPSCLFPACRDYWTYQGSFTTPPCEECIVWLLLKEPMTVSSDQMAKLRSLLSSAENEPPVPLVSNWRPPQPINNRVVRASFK

[1] = molecular target: Carbonic anhydrase 5A, mitochondrial (Homo sapiens, UniProt P35218); assay: Inhibition of human recombinant carbonic anhydrase5A mitochondrial isoform expressed in Escherichia coli BL21 preincubated for 15 mins by stopped-flow CO2 hydration assay
Carbonic anhydrase 5A, mitochondrial, sequence (P35218 whole entry, canonical isoform): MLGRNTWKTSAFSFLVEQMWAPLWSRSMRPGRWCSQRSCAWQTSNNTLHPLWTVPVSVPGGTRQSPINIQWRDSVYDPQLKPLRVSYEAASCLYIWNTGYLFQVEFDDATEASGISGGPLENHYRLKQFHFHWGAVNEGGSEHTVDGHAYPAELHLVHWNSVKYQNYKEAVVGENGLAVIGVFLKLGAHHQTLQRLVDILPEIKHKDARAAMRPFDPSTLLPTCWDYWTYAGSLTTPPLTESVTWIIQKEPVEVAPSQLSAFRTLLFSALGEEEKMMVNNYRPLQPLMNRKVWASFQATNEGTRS

Carbonic anhydrase 13 = Carbonic anhydrase 13 (Homo sapiens, UniProt Q8N1Q1); assay: Inhibition of human recombinant carbonic anhydrase13 cytosolic isoform expressed in Escherichia coli BL21 preincubated for 15 mins by stopped-flow CO2 hydration assay
Carbonic anhydrase 13, sequence (Q8N1Q1 whole entry, canonical isoform): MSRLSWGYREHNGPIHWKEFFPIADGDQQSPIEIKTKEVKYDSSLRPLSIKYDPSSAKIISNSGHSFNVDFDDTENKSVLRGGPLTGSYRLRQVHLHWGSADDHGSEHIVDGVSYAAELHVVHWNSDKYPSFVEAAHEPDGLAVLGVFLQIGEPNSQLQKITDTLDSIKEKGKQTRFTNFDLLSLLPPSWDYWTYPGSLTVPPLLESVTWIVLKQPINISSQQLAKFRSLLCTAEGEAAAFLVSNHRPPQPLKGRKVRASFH

Carbonic anhydrase 7 = Carbonic anhydrase 7 (Homo sapiens, UniProt P43166); assay: Inhibition of human recombinant carbonic anhydrase7 cytosolic isoform expressed in Escherichia coli BL21 preincubated for 15 mins by stopped-flow CO2 hydration assay
Carbonic anhydrase 7, sequence (P43166 whole entry, canonical isoform): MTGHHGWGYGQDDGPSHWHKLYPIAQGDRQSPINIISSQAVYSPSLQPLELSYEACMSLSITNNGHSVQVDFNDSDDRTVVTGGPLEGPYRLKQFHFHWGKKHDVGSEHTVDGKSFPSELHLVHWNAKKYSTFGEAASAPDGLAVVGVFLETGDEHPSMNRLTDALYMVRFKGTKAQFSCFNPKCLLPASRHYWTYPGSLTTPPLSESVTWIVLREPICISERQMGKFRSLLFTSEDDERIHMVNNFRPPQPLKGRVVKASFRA

Carbonic anhydrase 2 = Carbonic anhydrase 2 (Homo sapiens, UniProt P00918); assay: Inhibition of human recombinant carbonic anhydrase2 cytosolic isoform expressed in Escherichia coli BL21 preincubated for 15 mins by stopped-flow CO2 hydration assay
Carbonic anhydrase 14 = Carbonic anhydrase 14 (Homo sapiens, UniProt Q9ULX7); assay: Inhibition of human recombinant carbonic anhydrase14 transmembrane isoform expressed in Escherichia coli BL21 preincubated for 15 mins by stopped-flow CO2 hydration assay
Carbonic anhydrase 14, sequence (Q9ULX7 whole entry, canonical isoform): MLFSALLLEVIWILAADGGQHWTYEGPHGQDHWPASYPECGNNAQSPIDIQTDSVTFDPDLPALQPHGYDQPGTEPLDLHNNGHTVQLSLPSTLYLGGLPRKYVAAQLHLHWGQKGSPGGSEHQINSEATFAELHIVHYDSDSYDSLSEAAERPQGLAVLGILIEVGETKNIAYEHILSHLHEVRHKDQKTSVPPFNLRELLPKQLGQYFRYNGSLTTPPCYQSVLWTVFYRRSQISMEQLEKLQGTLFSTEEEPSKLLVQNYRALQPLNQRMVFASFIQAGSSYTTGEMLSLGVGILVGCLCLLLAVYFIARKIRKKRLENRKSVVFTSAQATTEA

Carbonic anhydrase 4 = Carbonic anhydrase 4 (Homo sapiens, UniProt P22748); assay: Inhibition of human recombinant carbonic anhydrase4 membrane-bound isoform expressed in Escherichia coli BL21 preincubated for 15 mins by stopped-flow CO2 hydration assay
Carbonic anhydrase 4, sequence (P22748 whole entry, canonical isoform): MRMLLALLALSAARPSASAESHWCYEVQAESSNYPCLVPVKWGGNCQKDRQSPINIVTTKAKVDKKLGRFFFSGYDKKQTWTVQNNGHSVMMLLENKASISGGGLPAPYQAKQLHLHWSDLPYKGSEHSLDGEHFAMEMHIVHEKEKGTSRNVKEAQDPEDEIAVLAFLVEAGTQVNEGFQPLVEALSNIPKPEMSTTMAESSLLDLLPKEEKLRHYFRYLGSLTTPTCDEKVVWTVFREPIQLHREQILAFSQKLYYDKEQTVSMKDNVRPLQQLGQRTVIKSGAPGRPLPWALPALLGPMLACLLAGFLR

Row | Ki (Carbonic anhydrase 9) [nM] | Ki (Carbonic anhydrase 1) [nM] | Ki (Carbonic anhydrase 6) [nM] | Ki (Carbonic anhydrase 12) [nM] | Ki (Carbonic anhydrase 3) [nM] | Ki [1] [nM] | Ki (Carbonic anhydrase 13) [nM] | Ki (Carbonic anhydrase 7) [nM] | Ki (Carbonic anhydrase 2) [nM] | Ki (Carbonic anhydrase 14) [nM] | Ki (Carbonic anhydrase 4) [nM] | SMILES
1 | 199 | 81.5 | 167 | 5 | 6860 | 650 | 602 | 6.5 | 5.6 | 214 | 2740 | COC(=O)CNc1nc(F)nc(NCCc2ccc(S(N)(=O)=O)cc2)n1
2 |  |  |  |  |  |  | 921 | 45 |  |  |  | CNc1nc(NC)nc(Nc2ccc(S(N)(=O)=O)cc2)n1
3 | 208 | 238 |  | 17.5 |  |  | > 10000 | 8.5 | 5.5 |  |  | NS(=O)(=O)c1ccc(Nc2nc(F)nc(NCCO)n2)cc1
4 | 214 | 250 | 148 | 4.5 | 9020 | 915 | > 10000 | 8.3 | 5 | 126 | 3660 | NS(=O)(=O)c1ccc(CCNc2nc(F)nc(NCC(=O)O)n2)cc1
5 |  | 88 |  | 10 |  |  | 1030 | 6.2 | 4.9 |  |  | NS(=O)(=O)c1ccc(Nc2nc(F)nc(F)n2)cc1
6 | 228 | 90 |  | 15.4 |  |  | 735 | 6.7 | 5.4 |  |  | CNc1nc(F)nc(Nc2ccc(S(N)(=O)=O)cc2)n1
7 |  | 203 | 1390 | 4.6 | 7010 | > 10000 | 470 | 21.9 | 7.1 | 42 | 1360 | NS(=O)(=O)c1ccc(CCNc2nc(F)nc(F)n2)cc1
